One data set concerns HUVEC. Kind of data set: Proliferation assay. In kind it is cell-based. Particulars: Homo sapiens, 72 h, n = 4. As for the experimental part:
(§1) Supplementary Method 5: Biological Assays […]
(§2) 2. Proliferation and cytotoxicity assay
(§3) Cells and culture conditions
(§4) The following cell lines and media were used:
(§5) Cell line Cell culture medium
(§6) Cells were grown in the appropriate cell culture medium supplemented with 10 mL/L ultraglutamine 1 […]
(§7) heat inactivated fetal bovine serum (GIBCO Life Technologies 10270-106) at 37 °C in 5% CO 2 in high density polyethylene flasks (NUNC 156340).
(§8) To decide if the compounds have an antiproliferative and/or a cytotoxic effect on human cells, cell death and retardation of cell proliferation were assessed. Under our experimental conditions, the optical density measured from the CellTiter-Blue® reagent and methylene blue assay is proportional to the […]
(§9) The test substances were dissolved in DMSO and further diluted in the cell culture medium. The adherent cells were harvested at the logarithmic growth phase after soft trypsinization using 0.25% trypsin in PBS containing 0.02% EDTA (Biochrom KG L2163). For each experiment, approximately 10,000 cells were seeded with 0.1 mL culture medium per well of the 96-well microplates (HUVEC: flat bottomed NUNC 167008, K-562: round bottomed NUNC 163320). To test the antiproliferative […]
(§10) effect of test compounds on HUVEC and K-562, the cells were incubated for 72 hours in plates prepared with control and different dilutions of test substances. […]
(§11) of proliferation compared to the untreated control. […]
(§12) Cells were incubated with dilutions of the test substances in microplates for 72 hours at 37 °C in a humidified atmosphere and 5% CO 2. […]
(§13) cytotoxicity and the inhibition of cell proliferation. The number of viable cells was determined subsequent to staining with CellTiter-Blue® reagent or methylene blue. […]
(§14) HUVEC and HeLa cells: The adherent HUVEC and HeLa cells were fixed by glutaraldehyde (MERCK […]
(§15) gently washing, the stain was eluted by adding 0.2 mL of hydrochloric acid (0.33 M) to each well. The optical densities were measured at 660 nm (methylene blue) in SUNRISE microplate reader (TECAN).
(§16) General remarks: Signals from the methylene blue and CellTiter-Blue® reagent are proportional to the number of viable cells. A repeat determination has been conducted in all experiments, four replicates were assayed. The calculations of the different values of GI 50 and CC 50 were performed with the software

Details of data set [1]: method as in PMID 28097740. Particulars: preclinical studies ref 12; cited from earlier work.
For a further data set, the system named is K-562. The experiment in a line: Proliferation assay. In kind it is cell-based. Particulars: Homo sapiens, K562; 72 h, n = 4. How it is done: as §1, §2, §3, §4, §5, §6, §7, §8, §9, §10, §11, §12
cytotoxicity and the inhibition of cell proliferation. The number of viable cells was determined subsequent to staining with CellTiter-Blue® reagent or methylene blue.
K-562 cells: The influence of test substances on cell proliferation of K-562 was determined via the CellTiter-Blue® assay (PROMEGA). Briefly, viable cells are able to reduce the indicator dye resazurin […]
dye. Thus, formation of resorufin was followed by measuring absorption at 570 nm and subtracting absorption measured at 600 nm. […]
as §16

Data set [2] has as its system Mycobacterium smegmatis (JMRC:STH:00056). The experiment in a line: MIC determination. Type of data set: cell-based. The settings on record: Mycolicibacterium smegmatis; n = 1. How it is done:
(§17) Supplementary Method 5: Biological Assays
Minimal inhibitory concentrations were determined against Mycobacterium vaccae (JMRC:STI:10670) and Mycobacterium smegmatis (JMRC:STH:00056). M. vaccae and M. smegmatis cultures were grown 48 h at 32 °C in a medium consisting of glycerol (1%), beef extract (0.5%), peptone from casein (0.5%) and sodium chloride (0.3%). Serial dilutions of the DMSO test item solutions (1 mg∙mL -1) were prepared at 100 µL scale in 96 well plates in Mueller Hinton broth starting at 200 µg∙mL -1 (highest) to cover a final concentration range of 100 to 0.05 µg∙mL -1. Each plate was equipped with a series of DMSO and ciprofloxacin dilutions as quality controls. 96 well plates were inoculated with 100 µL diluted culture (Mueller Hinton bullion) at a final concentration of 5∙10 5 and incubated at 37 °C for 42 h. Growth/no growth was visually inspected. […]

Another data set can be described thus: Cytotoxicity assay. Type of data set: cell-based. The settings on record: human, n = 4. As for the experimental part: as §1, §2, §3, §4, §5, §6, §7, §8
The test substances were dissolved in DMSO and further diluted in the cell culture medium. The adherent cells were harvested at the logarithmic growth phase after soft trypsinization using 0.25% trypsin in PBS containing 0.02% EDTA (Biochrom KG L2163). For each experiment, approximately 10,000 cells were seeded with 0.1 mL culture medium per well of the 96-well microplates (HUVEC: flat bottomed NUNC 167008, K-562: round bottomed NUNC 163320). […]
For the cytotoxicity assay, HeLa cells were preincubated for 48 hours without the test substances. To test the cytotoxic effect on HeLa, dilutions of the compounds were carried out carefully on the subconfluent monolayers of HeLa cells after the preincubation time. After incubation time, the cytolytic effect of compounds was analysed in comparison to the negative control. The 50% cytotoxic concentration (CC 50 ) was defined as the test compound concentration required for destruction of the cell monolayer by 50% compared to untreated control.
as §12, §13, §14, §15, §16

Data set [3] has as its system Mycobacterium vaccae (JMRC:STI:10670). The experiment in a line: MIC determination. Particulars: for MIC: Mycolicibacterium vaccae, n = 1; for Selectivity index: ratio between CC50 (HeLa) and MIC M. vaccae. Type of data set: cell-based. How it is done:
as §17
Minimal inhibitory concentrations were determined against Mycobacterium vaccae (JMRC:STI:10670) and Mycobacterium smegmatis (JMRC:STH:00056). M. vaccae and M. smegmatis cultures were grown 48 h at 32 °C in a medium consisting of glycerol (1%), beef extract (0.5%), peptone from casein (0.5%) and sodium chloride (0.3%). Serial dilutions of the DMSO test item solutions (1 mg∙mL -1) were prepared at 100 µL scale in 96 well plates in Mueller Hinton broth starting at 200 µg∙mL -1 (highest) to cover a final concentration range of 100 to 0.05 µg∙mL -1. Each plate was equipped with a series of DMSO and ciprofloxacin dilutions as quality controls. 96 well plates were inoculated with 100 µL diluted culture (Mueller Hinton bullion) at a final concentration of 5∙10 5 and incubated at 37 °C for 42 h. Growth/no growth was visually inspected.
as §2, §3, §4, §5, §6, §7, §8
The test substances were dissolved in DMSO and further diluted in the cell culture medium. The adherent cells were harvested at the logarithmic growth phase after soft trypsinization using 0.25% trypsin in PBS containing 0.02% EDTA (Biochrom KG L2163). For each experiment, approximately 10,000 cells were seeded with 0.1 mL culture medium per well of the 96-well microplates (HUVEC: flat bottomed NUNC 167008, K-562: round bottomed NUNC 163320). To test the antiproliferative

Converted amounts (≈) assume the structure as drawn.

Turning to `C[C@H]1COC2(CCN(c3nc(=O)c4cc(C(F)(F)F)cc([N+](=O)[O-])c4s3)CC2)O1` [Compound 1, reference compound], the GI50 in the data set with HUVEC and in the data set on K-562 was greater than 116 µM in each case. Also, the “HMC formation in vivo (in words)” value in data set [1] is on record as “significant hydride-Meisenheimer complex (HMC) formation in vivo”. Also, the values for the MIC in data set [2] and in data set [3] were 0.058 µM (≈ 0.025 µg/mL) and 0.004 µM (≈ 0.00173 µg/mL), respectively. Also, in “Cytotoxicity assay”, the CC50 at 72 h is greater than 116 µM. For the same molecule, the Selectivity index in data set [3] is greater than 31248.

As for `CCOC(=O)c1cc([N+](=O)[O-])c2sc(N3CCC4(CC3)OC[C@H](C)O4)nc(=O)c2c1` [Compound 6b], the GI50 was determined as 49.1 ± 1.1 µM in the data set with HUVEC and 50.7 ± 6.9 µM in the data set on K-562. Besides, the MIC in data set [2] is 57.4 µM (≈ 25 µg/mL); in data set [3], 1.79 µM (≈ 0.779 µg/mL). In “Cytotoxicity assay”, this molecule registered a CC50 at 72 h greater than 115 µM. In addition, the Selectivity index in data set [3] is given as greater than 64.

With `C[C@H]1COC2(CCN(c3nc(=O)c4cc(C(=O)OCCO)cc([N+](=O)[O-])c4s3)CC2)O1` [Compound 6d], the values for the GI50 in the data set on HUVEC and in the data set on K-562 were 73.3 ± 4.2 µM and 17.9 ± 1.1 µM, respectively. Moreover, the MIC came out at 55.4 µM (≈ 25 µg/mL) in data set [2] and 13.8 µM (≈ 6.23 µg/mL) in data set [3]. Besides, the CC50 at 72 h in the data set “Cytotoxicity assay” is greater than 111 µM. For the same molecule, the Selectivity index in data set [3] is listed as greater than 8.

Take `C[C@H]1COC2(CCN(c3nc(=O)c4cc(C(=O)OCCI)cc([N+](=O)[O-])c4s3)CC2)O1` [Compound 6e]: the GI50 with HUVEC is 30.8 ± 0.5 µM; in the data set with K-562, 27.6 ± 0.9 µM. The MIC was 44.5 µM (≈ 25 µg/mL) in data set [2] and 2.78 µM (≈ 1.56 µg/mL) in data set [3]. This molecule registered a CC50 at 72 h in the data set “Cytotoxicity assay” of 78.2 ± 1.4 µM. Further, the Selectivity index in data set [3] is reported as 28.

As to `C[C@H]1COC2(CCN(c3nc(=O)c4cc(C(=O)OCCOC(=O)c5cc([N+](=O)[O-])c6sc(N7CCC8(CC7)OC[C@H](C)O8)nc(=O)c6c5)cc([N+](=O)[O-])c4s3)CC2)O1` [Compound 6f], the GI50 in the data set on HUVEC and in the data set with K-562 was greater than 59 µM throughout. The results for the MIC in data set [2] and in data set [3] were 119 µM (≈ 100 µg/mL) and 14.9 µM (≈ 12.5 µg/mL), respectively. The molecule further displayed a CC50 at 72 h in the data set “Cytotoxicity assay” greater than 59.4 µM. For the same molecule, in data set [3], the Selectivity index is on record as greater than 4.

Regarding `C[C@H]1COC2(CCN(c3nc(=O)c4cc(C(N)=O)cc([N+](=O)[O-])c4s3)CC2)O1` [Compound 7a], the GI50 in the data set with HUVEC and in the data set on K-562 was greater than 123 µM throughout. Further, the MIC in data set [2] turned out to be 123 µM (≈ 50 µg/mL); in data set [3], 61.5 µM (≈ 25 µg/mL). This molecule yielded a CC50 at 72 h in the data set “Cytotoxicity assay” greater than 123 µM. Also, in data set [3], the Selectivity index was greater than 2.

As for `CNC(=O)c1cc([N+](=O)[O-])c2sc(N3CCC4(CC3)OC[C@H](C)O4)nc(=O)c2c1` [Compound 7b], the GI50 in the data set with HUVEC and with K-562 was greater than 119 µM in each case. Also, the MIC in data set [2] was found to be 119 µM (≈ 50 µg/mL); in data set [3], 59.5 µM (≈ 25 µg/mL). The CC50 at 72 h in “Cytotoxicity assay” is greater than 119 µM. In data set [3], the Selectivity index is greater than 2.

In the case of `C[C@H]1COC2(CCN(c3nc(=O)c4cc(C(=O)NCCO)cc([N+](=O)[O-])c4s3)CC2)O1` [Compound 7d], the GI50 in the data set with HUVEC and with K-562 was greater than 111 µM throughout. Moreover, the MIC in data set [2] was found to be 111 µM (≈ 50 µg/mL); in data set [3], 27.7 µM (≈ 12.5 µg/mL). This molecule gave a CC50 at 72 h in “Cytotoxicity assay” greater than 111 µM. The Selectivity index in data set [3] is listed as greater than 4.

With `C[C@H]1COC2(CCN(c3nc(=O)c4cc(C5=NCCO5)cc([N+](=O)[O-])c4s3)CC2)O1` [Compound 7e], the GI50 with HUVEC and in the data set with K-562 was greater than 116 µM in each case. Further, the MIC in data set [2] stood at 28.9 µM (≈ 12.5 µg/mL); in data set [3], 14.5 µM (≈ 6.27 µg/mL). In the data set “Cytotoxicity assay”, this molecule gave a CC50 at 72 h greater than 116 µM. In addition, the Selectivity index in data set [3] was greater than 8.

The values above are taken from PMC11227536, “Modulation of the Meisenheimer complex metabolism of nitro-benzothiazinones by targeted C-6 substitution” (Communications Chemistry, 2024).
